# Measurements published in patent publication US20090131528A1, “SALT” (priority 2006, published 2009).
# Where a name gives a salt, the structure may show the parent alone.
# Assays:
# [1] = Dynamic vapour sorption (DVS-1), isothermal water absorption or loss; format: physicochemical; conditions: for Change in Mass (%) Desorption / Change in Mass (%) Sorption: 25° C., 2 hours after equilibration
# Text: A clear characterisation of this property is achieved by means of isothermal measurements over predetermined time intervals and predetermined relative humidity using dynamic vapour sorption (DVS-1 from the company Surface Measurement Systems LTD, Marlow, Buckinghamshire, UK). […] The measurement error of this sorption method based on thermogravimetry is about 0.1%.
# [2] = Stability test towards water, water content on storage; format: physicochemical; conditions: open container and sealed ampoule, four weeks at 40° C. and 75% relative humidity
# Text: (§1) The exceptional stability of the nitrate salt of aliskiren towards water may also be shown in stability tests.
# [3] = 1-Week Chemical Stability Test, total impurities by HPLC-UV 230 nm; format: physicochemical
# Text: as §1
# physchem = assay: physchem
# Text: The active ingredient aliskiren is the free base which is described specifically in EP 678503 A and it has one basic group, the amino group in position 5. […] Accordingly, one acidic group can bind to the nitrogen lone pairs of the amino group.
# [4] = Hygroscopicity, general statement; format: physicochemical
structure (smiles),measurement,setting,value
COCCCOc1cc(C[C@@H](C[C@H](N)[C@@H](O)C[C@H](C(=O)NCC(C)(C)C(N)=O)C(C)C)C(C)C)ccc1OC [nitrate salt of aliskiren],water absorption or loss,"[1]; DVS conditions employed, measurement error about 0.1%",no measurable water absorption or loss
same,hygroscopicity,"[1]; DVS, up to 95% RH",non-hygroscopic
same,moisture uptake,[1]; at 95% RH,0.3%
same,Change in Mass (%) Desorption,[1]; relative humidity 0%,−0.0060%
same,Change in Mass (%) Sorption,"[1]; relative humidity 0%, 39.4 mg sample",0.0001%
same,Change in Mass (%) Desorption,[1]; relative humidity 25%,0.0326%
same,Change in Mass (%) Sorption,[1]; relative humidity 25%,0.0269%
same,Change in Mass (%) Desorption,[1]; relative humidity 50%,0.0842%
same,Change in Mass (%) Sorption,[1]; relative humidity 50%,0.0821%
same,Change in Mass (%) Desorption,[1]; relative humidity 75%,0.1495%
same,Change in Mass (%) Sorption,[1]; relative humidity 75%,0.1425%
same,Change in Mass (%) Desorption,[1]; relative humidity 85%,0.1938%
same,Change in Mass (%) Sorption,[1]; relative humidity 85%,0.1864%
same,Change in Mass (%) Desorption,[1]; relative humidity 95%,0.3091%
same,Change in Mass (%) Sorption,[1]; relative humidity 95%,0.3091%
same,water content,[2],remains constant
same,"Total Impurities (HPLC-UV, 230 nm), %","[3]; 1 week, 50 C. sealed, listed as Nitrate",1.0%
same,"Total Impurities (HPLC-UV, 230 nm), %","[3]; 1 week, 50 C./75% RH, listed as Nitrate",1.0%
same,"Total Impurities (HPLC-UV, 230 nm), %","[3]; 1 week, 80 C. sealed, listed as Nitrate",1.0%
same,"Total Impurities (HPLC-UV, 230 nm), %","[3]; 1 week, 80 C./75% RH, listed as Nitrate",1.1%
COCCCOc1cc(C[C@@H](C[C@H](N)[C@@H](O)C[C@H](C(=O)NCC(C)(C)C(N)=O)C(C)C)C(C)C)ccc1OC [HemiFumarate],"Total Impurities (HPLC-UV, 230 nm), %","[3]; 1 week, 50 C. sealed",1.1%
same,"Total Impurities (HPLC-UV, 230 nm), %","[3]; 1 week, 50 C./75% RH",9.3%
same,"Total Impurities (HPLC-UV, 230 nm), %","[3]; 1 week, 80 C. sealed",18.1%
same,"Total Impurities (HPLC-UV, 230 nm), %","[3]; 1 week, 80 C./75% RH",64.3%
same,"Total Impurities (HPLC-UV, 230 nm), %",[3]; Unstressed,1.1%
"COCCCOc1cc(C[C@@H](C[C@H](N)[C@@H](O)C[C@H](C(=O)NCC(C)(C)C(N)=O)C(C)C)C(C)C)ccc1OC [aliskiren, 2(S),4(S),5(S),7(S)—N-(3-amino-2,2-dimethyl-3-oxopropyl)-2,7-di(1-methylethyl)-4-hydroxy-5-amino-8-[4-methoxy-3-(3-methoxy-propoxy)phenyl]-octanamide]",pKa,physchem,9.79
same,hygroscopicity,[4],highly hygroscopic
